Several values for one entry are separate records, joined by “and”; a condition that tells them apart may be missing. Equal entries are not always repeated.
Tests used:
Human SCD cells = assay: Ex vivo sickling under severe hypoxic conditions (2% oxygen); assay type: cell-based; details: 10 μM
Protocol: Red blood cells from SCD patients were used to evaluate the effects of Compound 1 on Hgb affinity for oxygen (i.e., oxygen affinity) and sickling under hypoxic conditions. Cells were incubated at 37° C. for 1, 2, and 3 hr with HEPES buffered saline (HBS) (untreated), HBS+dimethyl sulfoxide (DMSO) (vehicle), or 10 μM Compound 1. To assess oxygen dissociation, Hgb oxygen equilibrium curves were collected during deoxygenation.
Compound 1 (10 μM) reduced cell sickling under severe hypoxic conditions of 2% oxygen (PO2 of <20 mmHg) for up to 20 min (Table 9).

[1] = tested on: 2,3-DPG, ATP, p50, deformability of sickle RBCs; assay: Phase 1, SCD patients single 700 mg dose: pharmacodynamics; assay type: in vivo, human
Protocol: In this study, SAD/MAD cohorts are randomized (3 to 1) to receive Compound 1 or placebo (P). Compound 1 was evaluated first in 4 healthy SAD cohorts and 4 healthy MAD (14-day dosing period) cohorts. Based on the safety, and PK/PD profile from HS, Compound 1 is then evaluated in 1 SCD SAD cohort and 2 SCD MAD cohorts. Specifically, based on the safety and pharmacokinetic/pharmacodynamics (PK/PD) profile in healthy volunteer studies, Compound 1 is evaluated in patients (pts) with SCD, first in a single dose (SD or SAD) cohort and then in multiple-dose (MD or MAD) cohorts (14-day and 12-week). Safety assessments include AEs, vital signs, ECGs and laboratory parameters. PK/PD blood sampling was performed on Day 1 (SAD/MAD) and Day 14 (MAD) and up to 72 h after the last dose and at the end-of-study visit. PD parameters included 2,3-DPG, ATP, and p50 in all cohorts with additional PD studies (including oxygen scan) performed only in the SCD cohorts. PD parameters included 2,3-DPG, ATP, p50, RBC deformability with controlled deoxygenation and reoxygenation (Lorrca® oxygen scan) and varying osmolality (Lorrca® osmoscan)). To maintain study blind, pt identifiers were removed when needed.
A potential exposure to the maximum PD response dose range to evaluate in patients with SCD was identified. Based on the safety and PK/PD profile in healthy volunteer studies, a 700 mg single dose was evaluated in patients with SCD (n=7). A single 700 mg dose of Compound 1 was selected to evaluate in patients with SCD to enable daily dosing cohorts at lower exposures.
The effects of a single dose of Compound 1 (700 mg) versus placebo on oxygen scan, oxygen affinity (p50), and osmoscan in SCD patients were evaluated. At the Point of Sickling (POS or PoS), polymerization of de-oxy HbS can affect the deformability of the RBCs and the elongation Index starts to decrease. The EImin refers to the lowest level of RBC deformability in the Oxygenscan. The lower the EImin the lower the deformability of the RBC. […] As shown in FIG. 53 and Table 25 (Oxygen affinity curve), Compound 1 increased O2 affinity (decreased p50) in all participants treated. […] These effects were transient, returning to baseline 3 to 7 days after the single dose of Compound 1.
The oxygen affinity of RBCs was measured in patient blood using a Hemox Analyzer (TCS Scientific Corp.), an automatic system for the recording of blood oxygen equilibrium curves and related phenomena. The Hemox Analyzer was used according to standard methods to determine the hemoglobin-oxygen dissociation curves for whole blood samples, numerically characterized by the p50, the partial pressure of oxygen at which hemoglobin is 50% saturated. […] In the case of hemoglobin, the wavelength of maximum absorbance is the measuring wavelength (560 nm), while the reference wavelength is at the isosbestic point at (570 nm). The absorbance at the isosbestic point remains unchanged during the deoxygenation process of the hemoglobin, however the measuring wavelength (560 nm) undergoes a drastic change in absorbance. This change is detected by the electronic circuitry and is plotted as the log/ratio change between the two wavelengths. The log/ratio measurement at 560 nm and 570 nm is utilized to measure the optical absorbance change during the deoxygenation of the hemoglobin. Simultaneously with the measurement of the hemoglobin absorbance, the oxygen concentration is directly measured in the sample using a Clark electrode. […]

[2] = molecular target: T1, wt-PKR in mature human erythrocytes (Homo sapiens, UniProt P30613); assay: Cell assay: PKR activation in purified human RBCs (Biovision Pyruvate Kinase Assay); assay type: cell-based; details: 3 hr treatment
T1 construct: host or cells: purified human RBCs from donors
T1 sequence (P30613 whole entry): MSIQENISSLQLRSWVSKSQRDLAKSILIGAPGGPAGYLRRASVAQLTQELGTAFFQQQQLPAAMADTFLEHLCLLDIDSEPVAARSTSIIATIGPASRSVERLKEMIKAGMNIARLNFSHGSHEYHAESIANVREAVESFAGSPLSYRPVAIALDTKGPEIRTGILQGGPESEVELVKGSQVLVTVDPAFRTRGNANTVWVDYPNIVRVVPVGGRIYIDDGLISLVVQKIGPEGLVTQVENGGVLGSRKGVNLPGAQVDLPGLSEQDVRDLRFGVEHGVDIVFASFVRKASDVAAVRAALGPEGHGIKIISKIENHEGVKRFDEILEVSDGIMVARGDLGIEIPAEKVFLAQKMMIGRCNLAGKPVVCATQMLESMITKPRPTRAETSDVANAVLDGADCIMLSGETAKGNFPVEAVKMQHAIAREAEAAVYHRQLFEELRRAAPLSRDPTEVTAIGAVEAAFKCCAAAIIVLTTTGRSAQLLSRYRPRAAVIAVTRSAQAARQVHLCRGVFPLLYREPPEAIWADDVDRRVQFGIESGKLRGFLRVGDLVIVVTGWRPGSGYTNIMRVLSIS
Protocol: (§1) The activation of wt-PKR by Compound 1 in mature human erythrocytes ex vivo was evaluated in purified RBCs purchased from Research Blood Components. Cells treated with Compound 1 for 3 hr in glucose-containing media were washed, lysed, and assayed using a Biovision Pyruvate Kinase Assay (K709-100). The assay was repeated multiple times to account for donor-to-donor variability and the relatively narrow dynamic range.

[3] = molecular target: T2, PKR in mouse red blood cells (Mus musculus, UniProt P53657); assay: PKR activation in mouse red blood cells; assay type: cell-based; details: mouse RBCs
T2 construct: endogenous in cells; host or cells: mouse RBCs isolated fresh from whole blood
T2 sequence (P53657 whole entry): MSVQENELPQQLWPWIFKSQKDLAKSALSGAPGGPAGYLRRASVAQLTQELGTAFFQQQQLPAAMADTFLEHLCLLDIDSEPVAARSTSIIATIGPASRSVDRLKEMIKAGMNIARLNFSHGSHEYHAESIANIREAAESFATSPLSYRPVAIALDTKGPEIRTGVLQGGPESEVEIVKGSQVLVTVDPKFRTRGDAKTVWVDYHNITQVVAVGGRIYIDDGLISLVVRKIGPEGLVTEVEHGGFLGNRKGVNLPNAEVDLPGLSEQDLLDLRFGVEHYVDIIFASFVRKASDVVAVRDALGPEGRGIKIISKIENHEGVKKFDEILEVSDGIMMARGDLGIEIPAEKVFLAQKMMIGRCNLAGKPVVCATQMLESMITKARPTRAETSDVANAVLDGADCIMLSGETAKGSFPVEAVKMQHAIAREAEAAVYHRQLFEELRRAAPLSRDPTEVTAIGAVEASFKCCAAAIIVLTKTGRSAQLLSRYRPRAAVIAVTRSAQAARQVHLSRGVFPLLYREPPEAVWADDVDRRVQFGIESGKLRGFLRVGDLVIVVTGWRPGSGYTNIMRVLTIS
Protocol: as §1
Mouse RBCs were isolated fresh from whole blood using a Ficoll gradient and assayed with methods similar to those used in the human RBCs assays.

[4] = tested on: 2,3-DPG and ATP levels in whole blood; assay: PK/PD studies in wild type mice, QDx7 oral gavage; assay type: in vivo, Balb/c mice
Protocol: Two pharmacokinetic (PK)/pharmacodynamic (PD) studies were conducted in Balb/c mice that were administered Compound 1 once daily by oral gavage (formulated in 10% Cremophor EL/10% PG/80% DI water) for 7 days (QD×7) at doses of 0 (vehicle), 3.75, 7.5, 15, 30, 60 mg/kg (Study 1); 0 (vehicle), 7.5, 15, 30, 60, 120, or 240 mg/kg (Study 2). On the 7th day, whole blood was collected 24 hours after dosing and snap frozen. Samples were later thawed and analyzed by LC/MS for 2,3-DPG and ATP levels.

[5] = SCD patients, 24 hours after single 700-mg dose

SMILES: O=C([C@H](CO)c1ccccc1)N1CC2=C(C1)CN(S(=O)(=O)c1cnc3c(c1)OCCO3)C2 (single isomer, unassigned) [Compound 1]
- % Protection (Human SCD cells; 15 min in hypoxic conditions (maximum)): 16%
- Net % of Sickled Cells (Human SCD cells; 20 min in hypoxic conditions, DMSO 71): 60%
- decrease of 2,3-DPG blood concentrations [1, 5]: 26%
- increase of ATP blood concentrations [1, 5]: 30%
- Hb increase compared with placebo ([1]; SCD, 24 h after a single dose): ~0.9 g/dL
- POS (Oxygenscan), post-dose (24 hours) ([1]; SCD, single 700 mg, median (range), pre-dose 35.4 (27.3, 38.8)): 24.0 (17.9, 31.8)
- Ohyper (Osmoscan), post-dose (24 hours) ([1]; SCD, single 700 mg, median (range), pre-dose 380 (371, 399)): 400 (371, 412)
- Max-Min (%) ([2]; individual replicates 1-4): <125% and <150% and <100% and <50%
- Max-Min (%), mean maximum activation increase ([2]; mean of replicates): <100%
- Max-Min (%) ([3]; individual replicates 1-2): <50% and <100%
- Max-Min (%), mean ([3]; mean): <100%
- reduction of 2,3-DPG levels in blood ([4]; 120 and 240 mg/kg (≥120 mg/kg) QDx7 oral): > 30%
- ATP increase compared to vehicle ([4]; Study 1, 30 mg/kg QDx7 oral): 21%
- ATP increase compared to vehicle ([4]; Study 1, 60 mg/kg QDx7 oral): 79%
- ATP increase ([4]; Study 2, 240 mg/kg QDx7 oral (highest dose)): 45%
- maximum ATP increase compared to vehicle ([4]; Study 2, doses up to 120 mg/kg QDx7 oral): ~110%
- tolerability ([4]; both studies, up to 240 mg/kg QDx7, no adverse clinical signs, no body weight difference): well tolerated
- reduction of 2,3-DPG levels in blood ([4]; ≥15 mg/kg QDx7 oral, 24 h after dosing on day 7): > 20%
- ATP increase ([4]; ≥60 mg/kg): > 40%

Reference: patent US20220378756A1, “ACTIVATING PYRUVATE KINASE R” (FORMA Therapeutics, Inc., priority 2019, published 2022)
